The nature of data set [1]: Polymerization of tetraethylene glycol dimethacrylate (gel formation) as a test of BP radical activity. The class given is physicochemical. Conditions: agent in combination with BP, 3% w/w in tetraethylene glycol dimethacrylate, oven 90 to 100 degrees Celsius. From the text: Methods: Polymerization of tetra ethylene glycol dimethacrylate was used as a test of BP radical activity. Solutions of BP, antibiotics, and BP and antibiotics were made at 3% w/w in tetraethylene glycol dimethacrylate. All of the antibiotics except erythromycin (ERY) were obtained from prescription pills, which were crushed in a crucible. The portion of the pills that disolved in tetraethylene glycol dimethacrylate were used in the experiment. ERY was obtained in powdered form from Benzamycin® acne treatments. Aliquots of ten drops of these solutions were placed in an eight well plastic plate. The samples were heated in an oven that maintained a temperature range between 90 to 100 degrees Celsius. After various amounts of time the samples were taken out of the oven and tested for gel formation. Polymerization of tetraethylene glycol dimethacrylate was detected visually by swirling a spatula in the solutions. Gelling constituted an indicator of BP radical activity.

Data set [2] relates to Pseudomonas aeruginosa isolates. Nature of the data set: Checkerboard microdilution susceptibility test (MIC alone and in combination, FICI). The class given is cell-based. Here is the method: (§1) The object of this preliminary study was to discover the in vitro effect of the addition of benzoyl peroxide to terbinafine when tested against Candida albicans, Pseudomonas aeruginosa, and Staphylococcus aureus isolates, using a checkerboard microdilution method. […]
(§2) In this study, ten serial dilutions of terbinafine (starting at 32 μg/ml) and benzoyl peroxide (starting at 3%) were tested alone and in combination against ten Candida albicans isolates from the culture collection at the Center for Medical Mycology. Both susceptible and fluconazole-resistant strains were included. Two strains each of Pseudomonas aeruginosa and Staphylococcus aureus were also tested.
(§3) The individual minimum inhibitory concentrations (MICs) of terbinafine and BP against each isolate were determined according to the NCCLS M27-A2 and M07-A6 standards for yeasts and aerobic bacteria, respectively.
(§4) The effect of combining benzoyl peroxide with terbinafine was evaluated using a checkerboard assay. This test method is a modification of the microdilution antifungal susceptibility test (NCCLS M27A2) wherein two antifungal agents are combined in varying concentrations to determine whether they have a synergistic, additive, or antagonistic effect on the respective minimum inhibitory concentration (MIC) values.
(§5) Two antifungal agents were serially diluted in RPMI to produce ten concentrations of the drugs under investigation. The range was chosen to include achievable serum levels of the drugs. The two drugs were then combined into wells of a microtiter plate so that the concentration of one drug increases as that of the other decreased. Two rows consisting of serial dilutions of each individual drug were also included. Comparison of the MICs of the individual antifungal agents to the MIC of the combined agents was indicative of their relative efficacy.
(§6) [formula] The combination of two drugs was reported as synergistic (<0.5), additive (0.5<FICI <1.0), indifferent (1.0<FICI <4.0), or antagonistic (.4.0).

Data set [3] relates to Candida albicans isolates. The data set is described as above. The class given is cell-based. Here is the method:
as §1, §2, §3, §4, §5, §6

Data set [4] relates to Staphylococcus aureus isolates. The description is as above. The class given is cell-based. As for the experimental part:
as §1, §2, §3, §4, §5, §6

Setting [5] is: Ps. aeruginosa (n = 2), individual compound.
The mark [6] stands for this setting: C. albicans (n = 10), individual compound.
Where [7] appears, read: S. aureus (n = 2), individual compound.

The source of these data is patent publication US7326420B2, “Benzoyl peroxide compositions having increased potency” (priority 2001, dated 2008).

As a reminder, the MIC is the least concentration at which growth counts as inhibited.

A value given as a limit tells only on which side of the number the result lay.

Regarding `N[C@@H]1[C@H]2CN(c3nc4c(cc3F)c(=O)c(C(=O)O)cn4-c3ccc(F)cc3F)C[C@@H]12` [trovofloxacin], in data set [1], the “effect of the agent on BP radical activity (speed of polymerization of tetraethylene glycol dimethacrylate)” value was “did not augment BP radical activity”.

For the molecule `CC[C@H]1OC(=O)[C@H](C)[C@@H](O[C@H]2C[C@@](C)(OC)[C@@H](O)[C@H](C)O2)[C@H](C)[C@@H](O[C@@H]2O[C@H](C)C[C@H](N(C)C)[C@H]2O)[C@](C)(O)C[C@@H](C)C(=O)[C@H](C)[C@@H](O)[C@]1(C)O` [ERY, erythromycin], the “effect of the agent on BP radical activity (speed of polymerization of tetraethylene glycol dimethacrylate)” value in data set [1] is reported as “polymerize the fastest”.

On to `O=C(OOC(=O)c1ccccc1)c1ccccc1` [Benzoyl Peroxide, Benzoyl peroxide], for which the “number of isolates with MIC of Benzoyl Peroxide 0.09%” value in data set [2] (setting [5]) was found to be 2. In data set [3] (setting [6]), the “number of isolates with MIC of Benzoyl Peroxide 0.38%” value is reported as 6 and the “number of isolates with MIC of Benzoyl Peroxide 3.0%” value was determined as 4. Further, the “number of isolates with MIC of Benzoyl Peroxide 1.5%” value in data set [4] (setting [7]) is 2.

With `CN(C/C=C/C#CC(C)(C)C)Cc1cccc2ccccc12` [Terbinafine, terbinafine], the “number of isolates with MIC of Terbinafine >32 μg/ml” value in data set [2] (setting [5]) was 2; in data set [3] (setting [6]) it was 9; in data set [4] (setting [7]) it was 2. The MIC in data set [2] (Pseudomonas aeruginosa, read-out: MIC of terbinafine alone) is over 32 µg/mL; in data set [3] (Candida albicans, read-out: MIC of terbinafine alone), over 32 µg/mL; in data set [4] (Staphylococcus aureus, read-out: MIC of terbinafine alone), over 32 µg/mL. In data set [3] (setting [6]), the “number of isolates with MIC of Terbinafine 8 μg/ml” value is 1.
